The results in this text go back to patent US12448372B2, “Class of triaromatic compounds targeting bifunctional phosphorylation site of STAT3 and applications thereof” (SHANGHAI YUYAO BIOTECH LTD., priority 2019, dated 2025).

Read-outs that look alike come from different tables or passages of the source.

The target in assay [1] is STAT3 protein (Homo sapiens, UniProt P40763). Briefly: Binding activity to STAT3 protein by microscale thermophoresis (MST). Conditions: purified STAT3 recombinant protein. From the text:
(1) Determination of Binding Activities of Compounds to STAT3 Protein by Microscale Thermophoresis (MST) Method
The microscale thermophoresis (MST) technique is a simple, rapid, and accurate method for quantifying biomolecular interactions. It can measure the movement of molecules in a microscopic temperature gradient field, as well as detect changes of molecular hydration shell, charge and size. When the Nanotemper microscale thermophoresis instrument locally heated by a infrared laser, molecules will move in a directional manner, then the molecular distribution ratio in the temperature gradient field are analyzed by a fluorescence to detect whether a small molecule compound binds to a target protein. The experimental operation is as follows: firstly, compounds to be tested are diluted in a gradient using MST test buffer, total 16 concentrations being configured; subsequently, the purified STAT3 recombinant protein is labeled using the HIS tag labeling kit, and the final concentration of the labeled protein is 100-200 nM; the labeled STAT3 proteins are well mixed with the diluted compounds and incubated and protected from light for 30 minutes; finally the samples were loaded by capillary tube and detected on the instrument. The binding constants (K^D) of small molecules to STAT3 protein were analyzed by Mo. analysis software.
For orientation: MST reads how a fluorescent partner responds to local heating, with and without ligand.

Assay [2] deals with Capan-2. Briefly: Cell proliferation by MTS method, Capan-2. The assay is classed as cell-based. From the text:
(§1) (2) Detection of Cell Proliferation by MTS Method
(§2) The MTS assay is a method for indirectly determining the number of living cells via colourimetric method. MTS is a newly synthesised tetrazole compound that reflects cell viability, which can be reduced by succinate dehydrogenase in the mitochondria of living cells to an orange-coloured formazan with an absorbance of the reduced product measured at 490 nm being in proportion to the number of living cells, thus reflecting the cell viability. This assay can be used to evaluate the effect of the compound on the proliferation of pancreatic cancer cells, thereby determining the inhibitory effect of the compound on the proliferation of pancreatic cancer cells and to calculate the IC^50. Each cells were inoculated uniformly into a 96-well plate at a density of 1-20×10^3 cells/well, 100 μL per well, and placed in a constant temperature incubator until the cells adhered to the wall. The control group was added with the corresponding medium and the experimental groups were given different concentrations of the compound prepared by the examples of the present invention, and the cells were taken out 24-96 h after administration for observing the cell state under a microscope. Under light-proof conditions, MTS was added and well mixed, the mixture was placed in a constant temperature incubator at 37° C., and the light absorption value were measured using an enzyme marker at 490 nm and the experiment was repeated for three times, IC50 was calculated with GraphPad5 Prism software.
(In general: Formazan colour is commonly taken as a measure of viable cells.)

The subject of assay [3] is HCC827. Briefly: Cell proliferation by MTS method, HCC827. The class given is cell-based. Conditions: Table 1, HCC827, read-out: Tumour cell proliferative activity/IC50(nM) Lung Cancer HCC827.
Excerpt: as §1, §2

Assay [4] concerns Huh7. Briefly: Cell proliferation by MTS method, Huh7. Conditions: Table 1, Huh7, read-out: Tumour cell proliferative activity/IC50(nM) Liver Cancer Huh7. The class given is cell-based.
Excerpt: as §1, §2

For assay [5], the system named is MKN45. As to the kind of experiment: Cell proliferation by MTS method, MKN45. The assay is classed as cell-based. The following applies: Table 1, MKN45, read-out: Tumour cell proliferative activity/IC50(nM) gastric Cancer MKN45.
Excerpt: as §1, §2

Where [6] appears, read: Homo sapiens, Table 1, Capan-2, read-out: Tumour cell proliferative activity/IC50(nM) Pancreatic Cancer Capan-2.

Chain of STAT3 protein (P40763 whole entry): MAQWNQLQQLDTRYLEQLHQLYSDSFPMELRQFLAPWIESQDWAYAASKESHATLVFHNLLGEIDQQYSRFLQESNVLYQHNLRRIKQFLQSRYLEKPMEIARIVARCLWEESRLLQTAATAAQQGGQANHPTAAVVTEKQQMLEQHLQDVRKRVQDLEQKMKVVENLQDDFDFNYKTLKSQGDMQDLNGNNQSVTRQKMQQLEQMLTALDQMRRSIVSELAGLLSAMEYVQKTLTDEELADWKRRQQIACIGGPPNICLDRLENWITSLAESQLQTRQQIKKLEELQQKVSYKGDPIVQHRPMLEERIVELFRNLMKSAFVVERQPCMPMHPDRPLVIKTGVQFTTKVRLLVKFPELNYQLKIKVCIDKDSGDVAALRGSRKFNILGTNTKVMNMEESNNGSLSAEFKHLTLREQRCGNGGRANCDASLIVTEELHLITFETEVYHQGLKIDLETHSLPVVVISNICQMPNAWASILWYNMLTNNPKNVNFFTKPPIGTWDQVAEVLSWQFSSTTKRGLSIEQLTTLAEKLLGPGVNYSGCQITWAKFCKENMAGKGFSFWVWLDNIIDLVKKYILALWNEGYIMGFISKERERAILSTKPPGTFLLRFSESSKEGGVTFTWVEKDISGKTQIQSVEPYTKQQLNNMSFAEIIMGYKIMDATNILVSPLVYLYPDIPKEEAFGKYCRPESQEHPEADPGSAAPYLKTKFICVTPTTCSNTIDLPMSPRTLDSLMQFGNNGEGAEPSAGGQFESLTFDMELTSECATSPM

The Kd is a measure of binding affinity in units of concentration. For `Cn1c(C(=O)N2CCN(Cc3ccc(OCC(F)(F)F)cc3)CC2)cc2ccc(Oc3cnc(-c4nc(-c5ccccc5)no4)cn3)cc21` [Example 1, 1-methyl-(6-((5-(3-phenyl-1,2,4-oxadiazol-5-yl)pyrazin-2-yl)oxy)-1H-indol-2-yl)(4-(4-(2,2,2-trifluoroethoxy)benzyl)piperazin-1-yl)methanone], in assay [1], the Kd was less than 0.01 µM. The IC50 in assay [2] (Table 1, Capan-2, read-out: Tumour cell proliferative activity/IC50(nM) Pancreatic Cancer Capan-2) was less than 10 nM; in assay [3], less than 10 nM; in assay [4] it was less than 10 nM; in assay [5] it was less than 10 nM.
Turning to `Cn1c(C(=O)N2CCN(Cc3ccc(OCC(F)(F)F)cc3)CC2)cc2ccc(Oc3cnc(-c4nc(-c5ccc(F)cc5)no4)cn3)cc21` [Example 2, (6-((5-(3-(4-fluorophenyl)-1,2,4-oxadiazol-5-yl)pyrazin-2-yl)oxy)-1-methyl-1H-indol-2-yl)(4-(4-(2,2,2-trifluoroethoxy)benzyl)piperazin-1-yl)methanone], the equilibrium dissociation constant (Kd) in assay [1] was less than 0.01 µM. Also, the IC50 is less than 10 nM in assay [2] (setting [6]); less than 10 nM in assay [3] (Homo sapiens); less than 10 nM in assay [4] (Homo sapiens, Huh-7); less than 10 nM in assay [5] (Homo sapiens, MKN-45).
Consider `Cn1c(C(=O)N2CCN(Cc3ccc(OCC(F)(F)F)cc3)CC2)cc2ccc(Oc3cnc(-c4nc(-c5ccccc5F)no4)cn3)cc21` [Example 3, (6-((5-(3-(2-fluorophenyl)-1,2,4-oxadiazol-5-yl)pyrazin-2-yl)oxy)1-methyl-1H-indol-2-yl)(4-(4-(2,2,2-trifluoroethoxy)benzyl)piperazin-1-yl)methanone], for which the Kd in assay [1] is less than 0.01 µM. The IC50 in assay [2] (setting [6]) was less than 10 nM; in assay [3] (Homo sapiens), less than 10 nM; in assay [4] (Homo sapiens, Huh-7), less than 10 nM; in assay [5] (Homo sapiens, MKN-45), less than 10 nM.
In the case of `Cn1c(C(=O)N2CCN(Cc3ccc(OCC(F)(F)F)cc3)CC2)cc2ccc(Oc3cnc(-c4nc(-c5cccc(F)c5)no4)cn3)cc21` [Example 4, (6-((5-(3-(3-fluorophenyl)-1,2,4-oxadiazol-5-yl)pyrazin-2-yl)oxy)1-methyl-1H-indol-2-yl)(4-(4-(2,2,2-trifluoroethoxy)benzyl)piperazin-1-yl)methanone], in assay [1], the Kd is less than 0.01 µM. Moreover, the IC50 in assay [2] (setting [6]) is less than 10 nM; in assay [3] (Homo sapiens), less than 10 nM; in assay [4] (Homo sapiens, Huh-7), less than 10 nM; in assay [5] (Homo sapiens, MKN-45), less than 10 nM.
`COc1ccc(-c2noc(-c3cnc(Oc4ccc5cc(C(=O)N6CCN(Cc7ccc(OCC(F)(F)F)cc7)CC6)n(C)c5c4)cn3)n2)cc1` [Example 5, (6-((5-(3-(4-methoxyphenyl)-1,2,4-oxadiazol-5-yl)pyrazin-2-yl)oxy)1-methyl-1H-indol-2-yl)(4-(4-(2,2,2-trifluoroethoxy)benzyl)piperazin-1-yl)methanone]: the Kd in assay [1] is less than 0.01 µM. For the same compound, the IC50 in assay [2] (setting [6]) is less than 10 nM; in assay [3] (Homo sapiens) it was less than 10 nM; in assay [4] (Homo sapiens, Huh-7) it was less than 10 nM; in assay [5] (Homo sapiens, MKN-45), less than 10 nM.
On to `Cn1c(C(=O)N2CCN(Cc3ccc(OCC(F)(F)F)cc3)CC2)cc2ccc(Oc3cnc(-c4nc(-c5ccccc5C(F)(F)F)no4)cn3)cc21` [Example 7, (6-((5-(3-(2-(trifluoromethyl)phenyl)-1,2,4-oxadiazol-5-yl)pyrazin-2-yl)oxy)-1-methyl-1H-indol-2-yl)(4-(4-(2,2,2-trifluoroethoxy)benzyl)piperazin-1-yl)methanone], for which the Kd in assay [1] is less than 0.001 µM. Also, the IC50 is 0.49 nM in assay [2] (Homo sapiens, Capan-2, FIG. 5B, read-out: IC50, inhibition of proliferation of pancreatic cancer cells); less than 1 nM in assay [2] (setting [6]); less than 1 nM in assay [3] (Homo sapiens); less than 1 nM in assay [4] (Homo sapiens, Huh-7); less than 1 nM in assay [5] (Homo sapiens, MKN-45). Moreover, the “improvement of anti-tumor proliferative activity over OPB51602 and IACS-010759” value in assay [2] (pancreatic cancer cells, FIG. 5B) is reported as 10 times.
